Reference: patent US20250311727A1, “SUBSTITUTED 2-AMINOAZINES AND SALTS THEREOF, AND USE THEREOF AS HERBICIDAL ACTIVE SUBSTANCES” (BAYER AKTIENGESELLSCHAFT, priority 2022, published 2025)

Assays:
Format in all cases: in vivo
Abutilon theophrasti [1] = assay: Post-emergence herbicidal efficacy at 320 g/ha, ABUTH; conditions: rated visually after about 3 weeks vs untreated controls, 100% = plants have died
Outline: (§1)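 Visual % activity vs untreated controls, ~3 wk after spraying; 100% = plants dead, 0% = like control. Greenhouse pot plants in sandy loam, treated at one-leaf stage (2–3 wk post-sowing). WP/EC in water + 0.5% additive, 600 L/ha spray volume.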

Amaranthus retroflexus [2] = assay: Post-emergence herbicidal efficacy at 320 g/ha, AMARE; conditions: rated visually after about 3 weeks vs untreated controls, 100% = plants have died
Outline: as §1

Digitaria sanguinalis [3] = assay: Post-emergence herbicidal efficacy at 320 g/ha, DIGSA; conditions: rated visually after about 3 weeks vs untreated controls, 100% = plants have died
Text: (§2) Unwanted plants/weeds: • ABUTH: Abutilon theophrasti • ALOMY: Alopecurus myosuroides • AMARE: Amaranthus retroflexus • DIGSA: Digitaria sanguinalis • ECHCG: Echinochloa crus-galli • KCHSC: Kochia scoparia • LOLRI: Lolium rigidum • MATIN: Matricaria inodora • POAAN: Poa annua • POLCO: Polygonum convolvulus • SETVI: Setaria viridis • STEME: Stellaria media • VERPE: Veronica persica • VIOTR: Viola tricolor A. Post-Emergence Herbicidal Efficacy at 320 g/ha
(§3) Seeds of mono- and dicotyledonous weed plants were placed in plastic pots in sandy loam soil (doubly sown with in each case one species of mono- or dicotyledonous weed plants per pot), covered with soil and cultivated in a greenhouse under controlled growth conditions. 2 to 3 weeks after sowing, the test plants were treated at the one-leaf stage. The compounds of the invention, formulated in the form of wettable powders (WP) or as emulsion concentrates (EC), were applied to the green parts of the plants as aqueous suspension or emulsion with addition of 0.5% additive at a water application rate equivalent to 600 litres per hectare. After the test plants had been kept in the greenhouse under optimum growth conditions for about 3 weeks, the activity of the preparations was rated visually in comparison to untreated controls.
(§4) For example, 100% activity=the plants have died, 0% activity=like control plants.
(§5) Tables A1 to A10 below show the effects of selected compounds of the general formula (I) according to Table 1 on various harmful plants and at an application rate corresponding to 320 g/ha, which were obtained by the trial procedure specified above.

Echinochloa crus-galli [4] = assay: Post-emergence herbicidal efficacy at 320 g/ha, ECHCG; conditions: rated visually after about 3 weeks vs untreated controls, 100% = plants have died
Text: as §2, §3, §4, §5

Kochia scoparia [5] = assay: Post-emergence herbicidal efficacy at 320 g/ha, KCHSC; conditions: rated visually after about 3 weeks vs untreated controls, 100% = plants have died
Outline: as §1

Poa annua [6] = assay: Post-emergence herbicidal efficacy at 320 g/ha, POAAN; conditions: rated visually after about 3 weeks vs untreated controls, 100% = plants have died
Text: as §2, §3, §4, §5

Setaria viridis [7] = assay: Post-emergence herbicidal efficacy at 320 g/ha, SETVI; conditions: rated visually after about 3 weeks vs untreated controls, 100% = plants have died
Text: as §2, §3, §4, §5

Stellaria media [8] = assay: Post-emergence herbicidal efficacy at 320 g/ha, STEME; conditions: rated visually after about 3 weeks vs untreated controls, 100% = plants have died
Outline: as §1

Veronica persica [9] = assay: Post-emergence herbicidal efficacy at 320 g/ha, VERPE; conditions: rated visually after about 3 weeks vs untreated controls, 100% = plants have died
Outline: as §1

Amaranthus retroflexus [10] = assay: Post-emergence herbicidal efficacy at 80 g/ha, AMARE; conditions: rated visually after about 3 weeks vs untreated controls, 100% = plants have died
Text: as §2
(§6) Seeds of monocotyledonous and dicotyledonous weeds and crop plants were placed in sandy loam in plastic or organic planting pots, covered with soil and cultivated in a greenhouse under controlled growth conditions. 2 to 3 weeks after sowing, the test plants were treated at the one-leaf stage. The compounds of the invention, formulated in the form of wettable powders (WP) or as emulsion concentrates (EC), were then sprayed onto the green parts of the plants as aqueous suspension or emulsion with addition of 0.5% additive at a water application rate of 600 l/ha (converted). After the test plants had been kept in the greenhouse under optimum growth conditions for about 3 weeks, the activity of the preparations was rated visually in comparison to untreated controls. For example, 100% activity=the plants have died, 0% activity=like control plants.
(§7) Tables B1 to B11 below show the effects of selected compounds of the general formula (I) according to Table 1 on various harmful plants and an application rate corresponding to 80 g/ha, which were obtained by the experimental procedure mentioned above.

Kochia scoparia [11] = assay: Post-emergence herbicidal efficacy at 80 g/ha, KCHSC; conditions: rated visually after about 3 weeks vs untreated controls, 100% = plants have died
Text: as §2, §6, §7

Veronica persica [12] = assay: Post-emergence herbicidal efficacy at 80 g/ha, VERPE; conditions: rated visually after about 3 weeks vs untreated controls, 100% = plants have died
Text: as §2, §6, §7

Viola tricolor [13] = assay: Post-emergence herbicidal efficacy at 80 g/ha, VIOTR; conditions: rated visually after about 3 weeks vs untreated controls, 100% = plants have died
Text: as §2, §6, §7

Abutilon theophrasti [14] = assay: Pre-emergence herbicide efficacy at 320 g/ha, ABUTH; conditions: scored visually after about 3 weeks vs untreated controls, 100% = plants have died
Text: as §2
(§8) Seeds of mono- and dicotyledonous weed plants were placed in plastic pots in sandy loam soil (doubly sown with one species each of mono- or dicotyledonous weed plants per pot) and covered with soil. The compounds of the invention, formulated in the form of wettable powders (WP) or as emulsion concentrates (EC), were then applied to the surface of the covering soil as aqueous suspension or emulsion with addition of 0.5% additive at a water application rate of 600 litres per hectare (converted). After the treatment, the pots were placed in a greenhouse and kept under good growth conditions for the test plants. After about 3 weeks, the efficacy of the preparations was scored visually in comparison with untreated controls as percentages.
as §4
(§9) Tables C1 to C12 below show the effects of selected compounds of the general formula (I) according to Table 1 on various harmful plants and at an application rate corresponding to 320 g/ha, which were obtained by the trial procedure specified above.

Amaranthus retroflexus [15] = assay: Pre-emergence herbicide efficacy at 320 g/ha, AMARE; conditions: scored visually after about 3 weeks vs untreated controls, 100% = plants have died
Outline: (§10)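 Pre-emergence soil-surface spray of WP or EC formulation in water at 600 L/ha with 0.5% additive, over seeds covered in sandy loam. Scoring visual, ~3 weeks, % of untreated.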

Digitaria sanguinalis [16] = assay: Pre-emergence herbicide efficacy at 320 g/ha, DIGSA; conditions: scored visually after about 3 weeks vs untreated controls, 100% = plants have died
Outline: as §10

Echinochloa crus-galli [17] = assay: Pre-emergence herbicide efficacy at 320 g/ha, ECHCG; conditions: scored visually after about 3 weeks vs untreated controls, 100% = plants have died
Text: as §2, §8, §4, §9

Kochia scoparia [18] = assay: Pre-emergence herbicide efficacy at 320 g/ha, KCHSC; conditions: scored visually after about 3 weeks vs untreated controls, 100% = plants have died
Outline: as §10

Matricaria inodora [19] = assay: Pre-emergence herbicide efficacy at 320 g/ha, MATIN; conditions: scored visually after about 3 weeks vs untreated controls, 100% = plants have died
Text: as §2, §8, §4, §9

Poa annua [20] = assay: Pre-emergence herbicide efficacy at 320 g/ha, POAAN; conditions: scored visually after about 3 weeks vs untreated controls, 100% = plants have died
Text: as §2, §8, §4, §9

Setaria viridis [21] = assay: Pre-emergence herbicide efficacy at 320 g/ha, SETVI; conditions: scored visually after about 3 weeks vs untreated controls, 100% = plants have died
Outline: as §10

Stellaria media [22] = assay: Pre-emergence herbicide efficacy at 320 g/ha, STEME; conditions: scored visually after about 3 weeks vs untreated controls, 100% = plants have died
Outline: as §10

Veronica persica [23] = assay: Pre-emergence herbicide efficacy at 320 g/ha, VERPE; conditions: scored visually after about 3 weeks vs untreated controls, 100% = plants have died
Outline: as §10

Abutilon theophrasti [24] = assay: Pre-emergence herbicide efficacy at 80 g/ha, ABUTH; conditions: scored visually after about 3 weeks vs untreated controls, 100% = plants have died
Text: as §2
(§11) Seeds of monocotyledonous and dicotyledonous weed plants and crop plants were placed in plastic or organic planting pots and covered with soil. The compounds of the invention, formulated in the form of wettable powders (WP) or as emulsion concentrates (EC), were then applied to the surface of the covering soil as aqueous suspension or emulsion with addition of 0.5% additive at a water application rate equivalent to 600 l/ha. After the treatment, the pots were placed in a greenhouse and kept under good growth conditions for the test plants. After about 3 weeks, the efficacy of the preparations was scored visually in comparison with untreated controls as percentages. For example, 100% activity=the plants have died, 0% activity=like control plants.
(§12) Tables D1 to D12 below show the effects of selected compounds of the general formula (I) according to Table 1 on various harmful plants and an application rate corresponding to 80 g/ha, which were obtained by the experimental procedure mentioned above.

Amaranthus retroflexus [25] = assay: Pre-emergence herbicide efficacy at 80 g/ha, AMARE; conditions: scored visually after about 3 weeks vs untreated controls, 100% = plants have died
Text: as §2, §11, §12

Digitaria sanguinalis [26] = assay: Pre-emergence herbicide efficacy at 80 g/ha, DIGSA; conditions: scored visually after about 3 weeks vs untreated controls, 100% = plants have died
Text: as §2, §11, §12

Echinochloa crus-galli [27] = assay: Pre-emergence herbicide efficacy at 80 g/ha, ECHCG; conditions: scored visually after about 3 weeks vs untreated controls, 100% = plants have died
Text: as §2, §11, §12

Kochia scoparia [28] = assay: Pre-emergence herbicide efficacy at 80 g/ha, KCHSC; conditions: scored visually after about 3 weeks vs untreated controls, 100% = plants have died
Text: as §2, §11, §12

Matricaria inodora [29] = assay: Pre-emergence herbicide efficacy at 80 g/ha, MATIN; conditions: scored visually after about 3 weeks vs untreated controls, 100% = plants have died
Text: as §2, §11, §12

Polygonum convolvulus = assay: Pre-emergence herbicide efficacy at 80 g/ha, POLCO; conditions: scored visually after about 3 weeks vs untreated controls, 100% = plants have died
Text: as §2, §11, §12

Setaria viridis [30] = assay: Pre-emergence herbicide efficacy at 80 g/ha, SETVI
Text: as §2, §11, §12

Veronica persica [31] = assay: Pre-emergence herbicide efficacy at 80 g/ha, VERPE
Text: as §2, §11, §12

Viola tricolor [32] = assay: Pre-emergence herbicide efficacy at 80 g/ha, VIOTR
Text: as §2, §11, §12

In the case of Cc1cnn(-c2c(C#N)cccc2Nc2ncc(Cl)cn2)c1 [Example 1-66], the “Post-emergence efficacy at 320 g/ha against ABUTH in %” value (Abutilon theophrasti [1]) was 100%, the “Post-emergence efficacy at 320 g/ha against AMARE in %” value (Amaranthus retroflexus [2]) was 100% and the “Post-emergence efficacy at 320 g/ha against DIGSA in %” value (Digitaria sanguinalis [3]) was 90%. For the same compound, the “Post-emergence efficacy at 320 g/ha against ECHCG in %” value (Echinochloa crus-galli [4]) was 100%, the “Post-emergence efficacy at 320 g/ha against KCHSC in %” value (Kochia scoparia [5]) was 100% and the “Post-emergence efficacy at 320 g/ha against POAAN in %” value (Poa annua [6]) was 100%. For the same compound, the “Post-emergence efficacy at 320 g/ha against SETVI in %” value (Setaria viridis [7]) was 90%, the “Post-emergence efficacy at 320 g/ha against STEME in %” value (Stellaria media [8]) was 100% and the “Post-emergence efficacy at 320 g/ha against VERPE in %” value (Veronica persica [9]) was 100%. For the same compound, the “Post-emergence efficacy at 80 g/ha against AMARE in %” value (Amaranthus retroflexus [10]) was 100%, the “Post-emergence efficacy at 80 g/ha against KCHSC in %” value (Kochia scoparia [11]) was 80% and the “Post-emergence efficacy at 80 g/ha against VERPE in %” value (Veronica persica [12]) was 90%. The “Post-emergence efficacy at 80 g/ha against VIOTR in %” value (Viola tricolor [13]) was 90%, the “Pre-emergence efficacy at 320 g/ha against ABUTH in %” value (Abutilon theophrasti [14]) was 100% and the “Pre-emergence efficacy at 320 g/ha against AMARE in %” value (Amaranthus retroflexus [15]) was 100%. The “Pre-emergence efficacy at 320 g/ha against DIGSA in %” value (Digitaria sanguinalis [16]) was 100%, the “Pre-emergence efficacy at 320 g/ha against ECHCG in %” value (Echinochloa crus-galli [17]) was 100% and the “Pre-emergence efficacy at 320 g/ha against KCHSC in %” value (Kochia scoparia [18]) was 100%. The “Pre-emergence efficacy at 320 g/ha against MATIN in %” value (Matricaria inodora [19]) was 90%, the “Pre-emergence efficacy at 320 g/ha against POAAN in %” value (Poa annua [20]) was 100% and the “Pre-emergence efficacy at 320 g/ha against SETVI in %” value (Setaria viridis [21]) was 100%. The “Pre-emergence efficacy at 320 g/ha against STEME in %” value (Stellaria media [22]) was 100%, the “Pre-emergence efficacy at 320 g/ha against VERPE in %” value (Veronica persica [23]) was 100% and the “Pre-emergence efficacy at 80 g/ha against ABUTH in %” value (Abutilon theophrasti [24]) was 80%. For the same compound, the “Pre-emergence efficacy at 80 g/ha against AMARE in %” value (Amaranthus retroflexus [25]) was 100%, the “Pre-emergence efficacy at 80 g/ha against DIGSA in %” value (Digitaria sanguinalis [26]) was 100% and the “Pre-emergence efficacy at 80 g/ha against ECHCG in %” value (Echinochloa crus-galli [27]) was 90%. For the same compound, the “Pre-emergence efficacy at 80 g/ha against KCHSC in %” value (Kochia scoparia [28]) was 100%, the “Pre-emergence efficacy at 80 g/ha against MATIN in %” value (Matricaria inodora [29]) was 100% and the “Pre-emergence efficacy at 80 g/ha against POLCO in %” value (Polygonum convolvulus) was 80%. For the same compound, the “Pre-emergence efficacy against SETVI” value (Setaria viridis [30]) was 90%, the “Pre-emergence efficacy against VERPE” value (Veronica persica [31]) was 100% and the “Pre-emergence efficacy against VIOTR” value (Viola tricolor [32]) was 100%.
